Measured values published in patent publication US11040981B2, “Pyrrolotriazine compounds and methods of inhibiting TAM kinases” (Syros Pharmaceuticals, Inc., priority 2017, dated 2021).
Where a name gives a salt, the structure may show the parent alone.

Legend:
Type in all cases: biochemical
AXL = target: T1, AXL (Homo sapiens, UniProt P30530); test: TR-FRET kinase activity assay, AXL; conditions: ATP at Km, 60 minutes
T1 sequence (P30530 26-894): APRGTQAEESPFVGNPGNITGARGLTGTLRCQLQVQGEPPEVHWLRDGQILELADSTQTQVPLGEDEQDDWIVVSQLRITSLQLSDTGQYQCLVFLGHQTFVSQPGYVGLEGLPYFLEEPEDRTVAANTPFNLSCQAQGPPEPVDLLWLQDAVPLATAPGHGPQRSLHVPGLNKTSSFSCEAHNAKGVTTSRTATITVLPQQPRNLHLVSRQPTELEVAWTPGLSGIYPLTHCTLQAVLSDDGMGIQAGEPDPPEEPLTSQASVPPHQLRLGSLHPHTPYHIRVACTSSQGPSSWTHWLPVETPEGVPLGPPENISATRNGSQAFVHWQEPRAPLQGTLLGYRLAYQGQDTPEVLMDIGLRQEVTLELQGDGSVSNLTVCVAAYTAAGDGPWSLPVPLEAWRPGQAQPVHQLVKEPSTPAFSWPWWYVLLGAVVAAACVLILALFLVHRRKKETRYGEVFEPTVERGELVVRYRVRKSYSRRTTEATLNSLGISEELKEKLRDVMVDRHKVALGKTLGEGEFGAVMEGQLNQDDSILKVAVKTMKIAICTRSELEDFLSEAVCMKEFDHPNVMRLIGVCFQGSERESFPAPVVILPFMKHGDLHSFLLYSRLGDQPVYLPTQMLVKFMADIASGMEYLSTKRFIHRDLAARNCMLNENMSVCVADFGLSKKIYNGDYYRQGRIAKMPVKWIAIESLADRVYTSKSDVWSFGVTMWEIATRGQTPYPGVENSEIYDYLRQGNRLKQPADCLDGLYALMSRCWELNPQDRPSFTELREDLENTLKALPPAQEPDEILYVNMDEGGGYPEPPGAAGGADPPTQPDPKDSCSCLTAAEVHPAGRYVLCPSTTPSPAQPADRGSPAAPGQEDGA
Procedure: (§1) IC50 values for compound inhibition of AXL, FLT3, MERTK and TYRO3 activity were determined by using a TR-FRET activity assay. A polypeptide substrate with a fluorescent label is phosphorylated on a tyrosine by each enzyme, where the now phosphorylated product is bound by a Europium-labeled antibody specific to that phosphorylation site. The proximity between the antibody and the substrate gives a signal known as TR-FRET. As the enzyme is inhibited by compound, less phosphorylated peptide product is made causing a decrease in overall signal.
(§2) Activity assays were performed in a 384-well, small volume, black microplates in an active enzyme volume of 10 μL and final developed volume of 20 μL. Final assay conditions are 50 mM HEPES pH 7.5, 10 mM MgCl2, 1 mM EGTA, 0.01% Brij 35 and 1 mM DTT all at RT. Enzyme, substrate labeled peptide and compound are mixed, and then the reaction is initiated with the addition of ATP at Km concentration for each enzyme. The reaction is allowed to run 60 minutes and then quenched with a 12.5 mM EDTA (ethylenediamine tetraacetic acid) solution. The plate is then developed with the addition of Europium labeled antibody for a final volume of 20 μL and is then incubated for 30 minutes in darkness. Plates are read in a Pherastar plate reader. Data is analyzed in GraphPad PRISM.
(§3) The results of these assays are shown in Table 1, below, wherein “No.” designates compound number (FIG. 1); “A” represents a value of ≤100 nM; “B” a value of >100 nM and ≤1 μM; “C” a value of >1 μM and ≤10 μM; “D” a value of >10 μM; “ND” is not determined. The ratio of Mer to FLT3 is calculated as follows: FLT3 IC50/Mer IC50. “+” represents a ratio of >2.0 and <10; “++” represents a ratio of between 10 and 100; and “+++” represents a ratio of >100.

FLT3 = target: T2, FLT3 (Homo sapiens, UniProt P36888); test: TR-FRET kinase activity assay, FLT3; conditions: ATP at Km, 60 minutes
T2 sequence (P36888 27-993): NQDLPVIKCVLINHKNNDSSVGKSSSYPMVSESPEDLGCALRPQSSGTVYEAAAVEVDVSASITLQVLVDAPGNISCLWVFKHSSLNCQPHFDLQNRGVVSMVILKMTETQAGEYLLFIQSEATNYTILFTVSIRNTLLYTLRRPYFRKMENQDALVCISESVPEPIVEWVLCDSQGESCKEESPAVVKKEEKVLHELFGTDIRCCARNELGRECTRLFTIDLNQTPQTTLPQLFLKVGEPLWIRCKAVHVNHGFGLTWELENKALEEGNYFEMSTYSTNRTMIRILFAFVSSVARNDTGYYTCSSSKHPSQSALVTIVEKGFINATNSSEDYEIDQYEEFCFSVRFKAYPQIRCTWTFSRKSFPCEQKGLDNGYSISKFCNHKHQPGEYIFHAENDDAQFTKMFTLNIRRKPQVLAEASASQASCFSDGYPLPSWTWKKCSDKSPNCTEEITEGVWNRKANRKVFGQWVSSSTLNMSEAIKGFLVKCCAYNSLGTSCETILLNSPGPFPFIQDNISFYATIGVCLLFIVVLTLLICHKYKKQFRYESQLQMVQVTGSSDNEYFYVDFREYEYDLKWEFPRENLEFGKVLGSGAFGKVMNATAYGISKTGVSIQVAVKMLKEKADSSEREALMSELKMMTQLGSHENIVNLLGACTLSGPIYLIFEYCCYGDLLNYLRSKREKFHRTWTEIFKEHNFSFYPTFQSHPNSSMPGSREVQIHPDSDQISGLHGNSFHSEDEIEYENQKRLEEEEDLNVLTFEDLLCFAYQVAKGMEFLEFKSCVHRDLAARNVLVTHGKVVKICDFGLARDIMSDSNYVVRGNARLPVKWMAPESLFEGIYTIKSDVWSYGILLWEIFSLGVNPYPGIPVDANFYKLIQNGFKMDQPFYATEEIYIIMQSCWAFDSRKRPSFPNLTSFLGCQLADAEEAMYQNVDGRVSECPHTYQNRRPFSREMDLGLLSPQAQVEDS
Procedure: as §1, §2, §3

MERTK = target: T3, MERTK (Homo sapiens, UniProt Q12866); test: TR-FRET kinase activity assay, MERTK; conditions: for IC50: TR-FRET activity assay, ATP at Km, 60 minutes, read-out: Mer IC50; for FLT3/Mer ratio (FLT3 IC50/Mer IC50): ratio of Mer to FLT3: FLT3 IC50/Mer IC50
T3 sequence (Q12866 21-999): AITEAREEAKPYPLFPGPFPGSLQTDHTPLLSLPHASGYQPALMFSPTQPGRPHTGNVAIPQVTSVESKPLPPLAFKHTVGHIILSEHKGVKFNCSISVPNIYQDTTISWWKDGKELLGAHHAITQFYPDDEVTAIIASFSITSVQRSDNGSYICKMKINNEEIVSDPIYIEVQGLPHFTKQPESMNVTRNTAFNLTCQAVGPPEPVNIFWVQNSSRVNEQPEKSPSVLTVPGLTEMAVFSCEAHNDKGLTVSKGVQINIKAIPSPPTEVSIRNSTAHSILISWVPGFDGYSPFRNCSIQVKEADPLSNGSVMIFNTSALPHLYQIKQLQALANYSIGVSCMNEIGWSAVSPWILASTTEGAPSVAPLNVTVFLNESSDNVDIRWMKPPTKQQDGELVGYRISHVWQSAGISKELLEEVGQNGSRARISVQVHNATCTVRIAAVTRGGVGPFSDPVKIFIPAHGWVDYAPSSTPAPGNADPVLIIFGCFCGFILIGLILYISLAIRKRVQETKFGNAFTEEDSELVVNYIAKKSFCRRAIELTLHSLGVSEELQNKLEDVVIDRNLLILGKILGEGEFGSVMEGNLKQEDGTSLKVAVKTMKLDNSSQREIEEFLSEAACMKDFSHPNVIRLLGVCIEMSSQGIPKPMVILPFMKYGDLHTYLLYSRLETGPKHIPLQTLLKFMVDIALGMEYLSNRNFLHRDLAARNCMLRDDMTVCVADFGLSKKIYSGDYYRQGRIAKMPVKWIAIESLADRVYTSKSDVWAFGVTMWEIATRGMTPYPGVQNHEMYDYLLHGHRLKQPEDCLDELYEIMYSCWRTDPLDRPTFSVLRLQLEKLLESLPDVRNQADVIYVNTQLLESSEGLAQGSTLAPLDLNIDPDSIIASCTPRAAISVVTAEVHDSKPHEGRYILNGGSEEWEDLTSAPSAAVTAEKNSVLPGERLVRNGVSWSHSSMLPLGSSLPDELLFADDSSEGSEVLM
Procedure: as §1, §2, §3

Compound | IC50 (AXL) | IC50 (FLT3) | IC50 (MERTK) | FLT3/Mer ratio (FLT3 IC50/Mer IC50) (MERTK)
CCCCNc1ncc2c(-c3ccc(S(=O)(=O)N4CCOCC4)cc3)cc([C@H]3CC[C@H](O)CC3)n2n1 [Compound 101] | ≤ 0.1 µM | ≤ 0.1 µM | ≤ 0.1 µM | + (“+” represents a ratio of >2.0 and <10)
CCCCCC(C)Nc1ncc2c(Nc3ccc(F)cc3)cc(C3CCC(O)CC3)n2n1 [Compound 106, (1S,4r)-4-(5-((4-fluorophenyl)amino)-2-((S)-heptan-2-ylamino)pyrrolo[2,1-f][1,2,4]triazin-7-yl)cyclohexanol hydrochloride] | > 10 µM | > 10 µM | 0.1 to 1 µM | ++ (“++” represents a ratio of between 10 and 100)
CCCCC[C@H](C)Nc1ncc2c(C(=O)Nc3ccc(F)cc3)cc(C3CCC(O)CC3)n2n1 (stereo partly drawn) [Compound 111, N-(4-fluorophenyl)-7-(4-hydroxycyclohexyl)-2-[[(1S)-1-methylhexyl]amino]pyrrolo[2,1-f][1,2,4]triazine-5-carboxamide] | > 10 µM | 1 to 10 µM | 1 to 10 µM | + (“+” represents a ratio of >2.0 and <10)
COC[C@H](C)Nc1ncc2c(-c3cnn(C[C@@H]4CC(=O)N(C)C4)c3)cc([C@H]3CC[C@H](O)CC3)n2n1 [Compound 476] |  | 0.1 to 1 µM | ≤ 0.1 µM | 
